Data set [1] has as its system Oryctolagus sp. The following applies: subchronic; inhalation; M/F; New Zealand; reduced testes weight, seminiferous tubule degeneration and reduced hemoglobin.
For data set [2], the system named is Rattus norvegicus. The following applies: subchronic, oral, drinking water, Fischer 344, Deaths + Clinical Observation: Emaciation Diarrhea Abnormal posture Tremors + Body Weight Changes: decrease + Water Consumption: decrease + ….
The next data set has as its system Cavia porcellus. The following applies: acute, Guinea Pig; for LD50: oral.
The test system of data set [3] is Rattus norvegicus.
The test system of data set [4] is Mus musculus.
Data set [5] concerns Oryctolagus sp. The following applies: acute.
Data set [6] has as its system Rattus norvegicus. The following applies: uterotrophic, Active.
Data set [7] relates to Mus musculus. The following applies: uterotrophic; duration: 0.17 days; injection; subcutaneous; Active.
The mark [8] stands for this setting: short-term, duration: 9 days, oral, gavage, Fischer 344.
[9] abbreviates: subchronic, duration: 3 months, oral, diet, Wistar.
Setting [10] is: subchronic, duration: 3 months, oral, gavage, Fischer 344.
Where [11] appears, read: short-term, duration: 11 days, oral, diet, B6C3F1.
The mark [12] stands for this setting: subchronic, duration: 3 months, oral, gavage, B6C3F1.

Values joined by “and” are separate entries in the source; they are usually repeats but may differ in a detail not shown here. Equal values may be shown once.

As usually defined, the LOAEL is the lowest tested level that showed an adverse finding. As a reminder, the NOAEL is the highest tested level that showed no adverse finding. The term LD50 denotes the dose expected to kill half of the subjects tested. Low readings indicate greater toxicity, high ones lower toxicity.

In the data set on Oryctolagus sp. [1], `CCOCCO` [2-Ethoxyethanol] registered an LOAEL of 1480 mg/m3 and an NOAEL of 380 mg/m3. The NOEL in the data set with Rattus norvegicus [2] (F) amounted to 122 mg/kg-day. Also, the NOEL with Rattus norvegicus [2] (M/F) was less than 190 mg/kg-day.

As to `CCCCC(CC)CO` (stereo unspecified) [2-Ethyl-1-hexanol], the LD50 in the data set with Cavia porcellus was ≥ 1220 mg/kg and ≤ 2820 mg/kg; in the data set with Cavia porcellus (gavage) it was 600 mg/kg; with Rattus norvegicus [3] (acute, dermal), greater than 3000 mg/kg; in the data set with Rattus norvegicus [3] (acute, oral, gavage, albino) it was 7000 mg/kg; in the data set with Oryctolagus sp. [5] (dermal), > 2600 mg/kg and 1980 mg/kg; in the data set with Oryctolagus sp. [5] (oral) it was 1180 mg/kg and 1470 mg/kg. Besides, the NOAEL was greater than 2520 mg/kg-day with Rattus norvegicus [3] (developmental, dermal, occlusive, Fischer 344); greater than 2520 mg/kg-day in the data set on Rattus norvegicus [3] (developmental, duration: 10 days, dermal, occlusive, Fischer 344); 650 mg/kg-day in the data set with Rattus norvegicus [3] (developmental, oral, gavage, Wistar); 0.648 mg/L and 0.32 mg/L in the data set on Rattus norvegicus [3] (repeat dose other, inhalation, Wistar); 130 mg/kg-day with Rattus norvegicus [3] (reproduction developmental, duration: 10 days, oral, gavage, F, Wistar); 130 mg/kg-day with Rattus norvegicus [3] (reproduction developmental, oral, gavage, F, Wistar). Besides, the NOAEL was 636 ppm in the data set with Rattus norvegicus [3] (short-term, duration: 9 days, oral, drinking water, Fischer 344); 83 mg/kg-day with Rattus norvegicus [3] (setting [8]); 0.32 mg/L in the data set on Rattus norvegicus [3] (short-term, duration: 14 days, inhalation, Wistar); 125 mg/kg-day and ≤ 250 mg/kg-day in the data set on Rattus norvegicus [3] (setting [10]); 250 mg/kg-day in the data set on Rattus norvegicus [3] (subchronic, duration: 13 weeks, oral, gavage); greater than 191 mg/kg-day in the data set on Mus musculus [4] (developmental, duration: 18 days, oral, diet, CD1). Further, the NOAEL was greater than 191 mg/kg-day with Mus musculus [4] (reproduction developmental, duration: 18 days, oral, diet, F, CD1); greater than 191 mg/kg-day in the data set with Mus musculus [4] (reproduction developmental, oral, diet, F, CD1); 2650 mg/kg-day and 1000 mg/kg-day in the data set on Mus musculus [4] (short-term, duration: 11 days, oral, diet, F, B6C3F1); 100 mg/kg-day in the data set with Mus musculus [4] (short-term, duration: 11 days, oral, gavage, B6C3F1); ≥ 125 mg/kg-day and ≤ 250 mg/kg-day with Mus musculus [4] (setting [12]); 250 mg/kg-day with Mus musculus [4] (subchronic, duration: 3 months, oral, gavage, F, B6C3F1). For the same molecule, the NOAEL with Mus musculus [4] (subchronic, duration: 3 months, oral, gavage, M, B6C3F1) amounted to 125 mg/kg-day. For the same molecule, the “NOAEL (% diet)” value in the data set with Rattus norvegicus [3] (repeat dose other, oral, diet, Fischer 344) is 0.46; with Rattus norvegicus [3] (setting [9]) it was 0.05; in the data set with Mus musculus [4] (repeat dose other, oral, diet, B6C3F1), ≥ 0.44 and ≤ 0.66; in the data set on Mus musculus [4] (setting [11]) it was ≥ 0.44 and ≤ 0.66. Besides, the lowest-observed-adverse-effect level (LOAEL) with Rattus norvegicus [3] (repeat dose other, oral, gavage, Fischer 344) was 100 mg/kg-day; in the data set with Rattus norvegicus [3] (setting [8]), 100 mg/kg-day; in the data set on Rattus norvegicus [3] (short-term, duration: 21 days, oral, gavage, Fischer 344), 100 mg/kg-day; in the data set on Rattus norvegicus [3] (setting [10]), 250 mg/kg-day; with Mus musculus [4] (setting [11]), ≥ 1000 mg/kg-day and ≤ 1500 mg/kg-day; in the data set with Mus musculus [4] (setting [12]), ≥ 250 mg/kg-day and ≤ 500 mg/kg-day. Moreover, the “LOAEL (% diet)” value was 0.25 in the data set with Rattus norvegicus [3] (setting [9]); ≥ 0.66 and ≤ 1.32 with Mus musculus [4] (setting [11]).

In the case of `N#CCCSCCC#N` [3,3'-Thiodipropionitrile], the LC50 is greater than 88.9 mg/m3 with Cavia porcellus (inhalation); greater than 88.9 mg/m3 in the data set with Rattus norvegicus [3] (acute, inhalation); greater than 88.9 mg/m3 in the data set with Mus musculus [4] (acute, inhalation). In the data set with Mus musculus [4] (acute, oral, gavage, albino), this molecule came in with an LD50 of 3750 mg/kg.

For the molecule `CCCCCCCCCc1ccc(O)cc1` [4-Nonylphenol], the LEL in the data set on Rattus norvegicus [6] (duration: 1 days, injection, subcutaneous) is 200 mg/kg-day and 600 mg/kg-day; in the data set with Rattus norvegicus [6] (duration: 3 days, injection, intraperitoneal), 100 mg/kg-day; with Rattus norvegicus [6] (duration: 5 days, oral), 100 mg/kg-day; in the data set on Rattus norvegicus [6] (duration: 7 days, oral), 120 mg/kg-day; with Rattus norvegicus [6] (duration: 11 days, oral), 150 mg/kg-day; in the data set with Mus musculus [7], 0.022 mg.

(Values after EPA's ToxValDB 9.5.)
